The subject of the data set is rodent lifetime carcinogenesis bioassay, tumor incidence TD50. As to the kind of experiment: carcinogenic potency in animals, long-term in vivo studies, CPDB compilation (AID 1745844).

Results on eight compounds are retold here after PubChem BioAssay AID1745844 (Carcinogenic Potency Database (CPDB), 2022).

Activity calls are given as the source filed them. No rule for the calls is given here.

The TD50 is the dose at which the toxic effect under study appears in half of the subjects.

`C[C@]12C=CC(=O)C=C1CC[C@@H]1[C@@H]2C(=O)C[C@@]2(C)[C@H]1CC[C@]2(O)C(=O)CO`: the carcinogen call (mouse, strain Charles River CD1, females, in feed, site: liver, lesion: several types, types named in the paper, dosed 78 weeks, study length 78 weeks) was “negative (inactive)”; the carcinogen call (mouse, strain Charles River CD1, females, in feed, site: lung, lesion: alveolar/bronchiolar tumor, dosed 78 weeks, study length 78 weeks) was “negative (inactive)”; the carcinogen call (mouse, strain Charles River CD1, females, in feed, site: lung, lesion: undifferentiated carcinoma, dosed 78 weeks, study length 78 weeks) was “negative (inactive)”; the carcinogen call (mouse, strain Charles River CD1, males, in feed, site: liver, lesion: several types, types named in the paper, dosed 78 weeks, study length 78 weeks) was “negative (inactive)”; the carcinogen call (mouse, strain Charles River CD1, males, in feed, site: lung, lesion: alveolar/bronchiolar tumor, dosed 78 weeks, study length 78 weeks) was “negative (inactive)”.

Consider `C=CC1CC=CCC1` (stereo not given), for which the TD50 runs as follows: (mouse, strain B6C3F1, females, by gavage, site: adrenal capsule, lesion: adenoma, NOS, dosed 103 weeks, study length 104 weeks) 1050 mg/kg/day; (mouse, strain B6C3F1, females, by gavage, site: any site (literature study), lesion: several types, types named in the paper, dosed 103 weeks, study length 104 weeks) 149 mg/kg/day; (mouse, strain B6C3F1, females, by gavage, site: liver, lesion: hepatocellular adenoma + hepatocellular carcinoma + neoplastic nodule, dosed 103 weeks, study length 104 weeks) 1480 mg/kg/day; (mouse, strain B6C3F1, females, by gavage, site: lung, lesion: alveolar/bronchiolar adenoma + alveolar/bronchiolar carcinoma, dosed 103 weeks, study length 104 weeks) 19000 mg/kg/day; (mouse, strain B6C3F1, females, by gavage, site: mesenteric lymph node + multiple organs + small intestine, lesion: malignant lymphoma, lymphocytic type, dosed 103 weeks, study length 104 weeks) 839 mg/kg/day; (mouse, strain B6C3F1, females, by gavage, site: ovary, lesion: granulosa-cell carcinoma + granulosa-cell tumor + mixed tumor, benign, dosed 103 weeks, study length 104 weeks) 94.4 mg/kg/day. In addition, the TD50 reads like this: (mouse, strain B6C3F1, females, by gavage, site: ovary, lesion: granulosa-cell carcinoma + granulosa-cell tumor, dosed 103 weeks, study length 104 weeks) 309 mg/kg/day; (mouse, strain B6C3F1, females, by gavage, site: ovary, lesion: granulosa-cell tumor, dosed 103 weeks, study length 104 weeks) 361 mg/kg/day; (mouse, strain B6C3F1, females, by gavage, site: ovary, lesion: mixed tumor, benign, dosed 103 weeks, study length 104 weeks) 106 mg/kg/day; (mouse, strain B6C3F1, males, by gavage, site: any site (literature study), lesion: several types, types named in the paper, dosed 103 weeks, study length 104 weeks) 307 mg/kg/day; (mouse, strain B6C3F1, males, by gavage, site: liver, lesion: hepatocellular adenoma + hepatocellular carcinoma + neoplastic nodule, dosed 103 weeks, study length 104 weeks) 1270 mg/kg/day; (mouse, strain B6C3F1, males, by gavage, site: lung, lesion: alveolar/bronchiolar adenoma + alveolar/bronchiolar carcinoma, dosed 103 weeks, study length 104 weeks) 490 mg/kg/day. Also, the TD50 (mouse, strain B6C3F1, males, by gavage, site: lung, lesion: alveolar/bronchiolar adenoma, dosed 103 weeks, study length 104 weeks) was 926 mg/kg/day; the TD50 (mouse, strain B6C3F1, males, by gavage, site: mesenteric lymph node + multiple organs + spleen, lesion: malignant lymphoma, histiocytic type + malignant lymphoma, mixed type + malignant lymphoma, lymphocytic type, dosed 103 weeks, study length 104 weeks) came out at 623 mg/kg/day; the TD50 (rat, strain Fischer 344, females, by gavage, site: any site (literature study), lesion: several types, types named in the paper, dosed 103 weeks, study length 104 weeks) was determined as 305 mg/kg/day; the TD50 (rat, strain Fischer 344, females, by gavage, site: clitoral gland, lesion: adenoma, NOS + squamous-cell carcinoma, dosed 103 weeks, study length 104 weeks) amounted to 580 mg/kg/day; the TD50 (rat, strain Fischer 344, females, by gavage, site: liver, lesion: hepatocellular adenoma + hepatocellular carcinoma + neoplastic nodule, dosed 103 weeks, study length 104 weeks) is 3.85e+06 mg/kg/day; the TD50 (rat, strain Fischer 344, males, by gavage, site: adrenal gland, lesion: pheochromocytoma + pheochromocytoma, malignant, dosed 103 weeks, study length 104 weeks) came to 159 mg/kg/day. The TD50 reads like this: (rat, strain Fischer 344, males, by gavage, site: any site (literature study), lesion: several types, types named in the paper, dosed 103 weeks, study length 104 weeks) 119 mg/kg/day; (rat, strain Fischer 344, males, by gavage, site: liver, lesion: hepatocellular adenoma + hepatocellular carcinoma + neoplastic nodule, dosed 103 weeks, study length 104 weeks) 132000 mg/kg/day; (rat, strain Fischer 344, males, by gavage, site: skin, lesion: squamous-cell carcinoma + squamous-cell papilloma, dosed 103 weeks, study length 104 weeks) 769 mg/kg/day; (rat, strain Fischer 344, males, by gavage, site: skin, lesion: squamous-cell papilloma, dosed 103 weeks, study length 104 weeks) 935 mg/kg/day; (rat, strain Fischer 344, males, by gavage, site: testis, lesion: interstitial-cell tumor, dosed 103 weeks, study length 104 weeks) 62.3 mg/kg/day.

Turning to `CN(C)CCN(Cc1ccsc1)c1ccccn1`, the carcinogen call (rat, strain Fischer 344, females, in drinking water, site: liver, lesion: several types, types named in the paper, dosed 80 weeks, study length 130 weeks) was “negative (inactive)” and the carcinogen call (rat, strain Fischer 344, males, in drinking water, site: thyroid follicle, lesion: several types, types named in the paper, dosed 80 weeks, study length 130 weeks) was “negative (inactive)”. The TD50 (rat, strain Fischer 344, females, in drinking water, site: thyroid follicle, lesion: several types, types named in the paper, dosed 80 weeks, study length 130 weeks) was 10700 mg/kg/day (inactive) and the TD50 (rat, strain Fischer 344, males, in drinking water, site: liver, lesion: several types, types named in the paper, dosed 80 weeks, study length 130 weeks) is 96.8 mg/kg/day (inactive).

With `C[C@@H]1CCCCN1N=O`, the TD50 runs as follows: (rat, strain Sprague-Dawley, both sexes, in drinking water, site: any site (literature study), lesion: malignant tumor, dosed 104 weeks, study length 104 weeks) 20.4 mg/kg/day; (rat, strain Sprague-Dawley, both sexes, in drinking water, site: liver, lesion: hepatocellular adenoma, dosed 104 weeks, study length 104 weeks) 108 mg/kg/day; (rat, strain Sprague-Dawley, both sexes, in drinking water, site: n. olfactorius, lesion: ependymoblastoma, dosed 104 weeks, study length 104 weeks) 22.1 mg/kg/day.

As for `O=CC(O)C(O)C(O)C(O)CO` (stereo not given), the carcinogen call is, setting by setting: (mouse, strain AP Alderly Park, females, in feed, site: any site (literature study), lesion: several types, types named in the paper, dosed 100 weeks, study length 100 weeks) “negative (inactive)”; (mouse, strain AP Alderly Park, females, in feed, site: lung, lesion: adenoma, dosed 100 weeks, study length 100 weeks) “negative (inactive)”; (mouse, strain AP Alderly Park, males, in feed, site: liver, lesion: hepatoma, dosed 100 weeks, study length 100 weeks) “negative (inactive)”; (mouse, strain AP Alderly Park, males, in feed, site: lung, lesion: adenoma, dosed 100 weeks, study length 100 weeks) “negative (inactive)”; (rat, strain AP Alderly Park, females, in feed, site: liver, lesion: one or several types, types not named, dosed 104 weeks, study length 104 weeks) “negative (inactive)”; (rat, strain AP Alderly Park, males, in feed, site: any site (literature study), lesion: several types, types named in the paper, dosed 104 weeks, study length 104 weeks) “negative (inactive)”. The TD50 (mouse, strain AP Alderly Park, females, in feed, site: liver, lesion: hepatoma, dosed 100 weeks, study length 100 weeks) was 538000 mg/kg/day (inactive); the TD50 (mouse, strain AP Alderly Park, males, in feed, site: any site (literature study), lesion: several types, types named in the paper, dosed 100 weeks, study length 100 weeks) is 132000 mg/kg/day (inactive); the TD50 (rat, strain AP Alderly Park, females, in feed, site: any site (literature study), lesion: several types, types named in the paper, dosed 104 weeks, study length 104 weeks) is 7790 mg/kg/day (inactive); the TD50 (rat, strain AP Alderly Park, males, in feed, site: liver, lesion: hepatoma, dosed 104 weeks, study length 104 weeks) is 133000 mg/kg/day (inactive).

With `O=C(O)c1ccccc1`, the carcinogen call reads like this: (mouse, strain Swiss albino, females, in drinking water, site: liver, lesion: one or several types, types not named, dosed 134 weeks, study length 134 weeks) “negative (inactive)”; (mouse, strain Swiss albino, females, in drinking water, site: lung, lesion: one or several types, types not named, dosed 134 weeks, study length 134 weeks) “negative (inactive)”; (mouse, strain Swiss albino, males, in drinking water, site: lung, lesion: one or several types, types not named, dosed 113 weeks, study length 113 weeks) “negative (inactive)”; (rat, strain Fischer 344, males, in feed, site: any site (literature study), lesion: malignant tumor, dosed 104 weeks, study length 108 weeks) “negative (inactive)”; (rat, strain Fischer 344, males, in feed, site: any site (literature study), lesion: several types, types named in the paper, dosed 104 weeks, study length 108 weeks) “negative (inactive)”. Moreover, the TD50 (mouse, strain Swiss albino, males, in drinking water, site: liver, lesion: hepatoma, dosed 113 weeks, study length 113 weeks) is 133000 mg/kg/day (inactive); the TD50 (rat, strain Fischer 344, females, in feed, site: any site (literature study), lesion: malignant tumor, dosed 104 weeks, study length 108 weeks) was 104000 mg/kg/day (inactive); the TD50 (rat, strain Fischer 344, females, in feed, site: any site (literature study), lesion: several types, types named in the paper, dosed 104 weeks, study length 108 weeks) was 24900 mg/kg/day (inactive).

On to `Cc1cnc(NC(=O)C2=C(O)c3ccccc3S(=O)(=O)N2C)s1`, for which the carcinogen call reads like this: (rat, strain Wistar, females, by gavage, site: stomach, lesion: one or several types, types not named, dosed 52 weeks, study length 52 weeks) “negative (inactive)”; (rat, strain Wistar, males, by gavage, site: stomach, lesion: one or several types, types not named, dosed 52 weeks, study length 52 weeks) “negative (inactive)”.

`OCCO`: the carcinogen call (mouse, strain B6C3F1, females, in feed, site: any site (literature study), lesion: several types, types named in the paper, dosed 103 weeks, study length 105 weeks) is “negative (inactive)”. In addition, the TD50 was 11300 mg/kg/day (mouse, strain B6C3F1, females, in feed, site: lung, lesion: alveolar/bronchiolar adenoma + alveolar/bronchiolar carcinoma, dosed 103 weeks, study length 105 weeks); 19200 mg/kg/day (inactive) (mouse, strain B6C3F1, males, in feed, site: Harderian gland, lesion: adenoma + carcinoma, dosed 103 weeks, study length 104 weeks); 9980 mg/kg/day (mouse, strain B6C3F1, males, in feed, site: any site (literature study), lesion: several types, types named in the paper, dosed 103 weeks, study length 104 weeks); 48100 mg/kg/day (mouse, strain B6C3F1, males, in feed, site: liver, lesion: hepatocellular adenoma + hepatocellular carcinoma + neoplastic nodule, dosed 103 weeks, study length 104 weeks).
